Patent publication US12404244B2, “Pan-KIT kinase inhibitor having quinoline structure and application thereof” (Tarapeutics Science Inc., priority 2018, dated 2025)
Where two headings read alike, the source gives them in different places.

How the values were obtained:
[1] = tested on: TEL-KIT-BaF3 (stably expressing KIT wild-type kinase); test: Proliferation of TEL-KIT-BaF3 cells (CCK-8); format: cell-based, mouse; details: Mus musculus, read-out: GI50 TEL-KIT-BaF3
Description: Compounds as provided herein were further evaluated for their inhibitory effects on proliferation of cancer cells by testing their effects on growth of cancer cells. In this example the following cells were used: primary mouse B cells BaF3 (purchased from ATCC), GIST-T1 cells of the human gastrointestinal stromal tumor cell line (expressing wild-type KIT gene) (purchased from Cosmo Bio Co., Ltd. (Japan)). The present lab further constructed and used the following: mouse Tel-Kit-BaF3 (stably expressing KIT wild-type kinase), mouse Tel-Kit/T670I-BaF3 (stably expressing KIT T670I mutant kinase), mouse Tel-Kit/V559A-BaF3 (stably expressing KIT V559A mutant kinase), mouse Tel-Kit/V559D-BaF3 (stably expressing KIT V559D mutant kinase), mouse Tel-Kit/V559G-BaF3 (stably expressing KIT V559G mutant kinase), mouse Tel-Kit/V560D-BaF3 (stably expressing KIT V560D mutant kinase), mouse Tel-Kit/L576P-BaF3 (stably expressing KIT L576P mutant kinase), mouse Tel-Kit/V654A-BaF3 (stably expressing KIT V654A mutant kinase), mouse Tel-Kit/V654A/V559D-BaF3 (stably expressing KIT V654A V559D mutant kinase), mouse Tel-Kit/T670E-BaF3 (stably expressing KIT T670E mutant kinase), mouse Tel-Kit/T670I/V559D-BaF3 (stably expressing KIT T670I V559D mutant kinase), mouse Tel-Kit/S709F-BaF3 (stably expressing KIT S709F mutant kinase), mouse Tel-Kit/D816E-BaF3 (stably expressing KIT D816E mutant kinase), mouse Tel-Kit/D816H-BaF3 (stably expressing KIT D816H mutant kinase), mouse Tel-Kit/D820E-BaF3 (stably expressing KIT D820E mutant kinase), mouse Tel-Kit/D820G-BaF3 (stably expressing KIT D820G mutant kinase), mouse Tel-Kit/D820Y-BaF3 (stably expressing KIT D820Y mutant kinase), mouse Tel-Kit/N822K-BaF3 (stably expressing KIT N822K mutant kinase), mouse Tel-Kit/Y823D-BaF3 (stably expressing KIT Y823D mutant kinase), mouse Tel-Kit/A829P-BaF3 (stably expressing KIT A829P mutant kinase), GIST-T1-T670I cells of the human gastrointestinal stromal tumor cell line (expressing KIT-T670I mutant gene). The above cell lines were constructed by: amplifying respectively the sequences of human KIT and various mutant kinase regions of KIT via PCR, inserting the fragments respectively into MSCV-Puro vectors having a N-terminal TEL fragment and/or a NPM fragment and/or a TPR fragment (purchased from Clontech), transfecting mouse BaF3 cells with the vectors by means of retrovirus to obtain stably transfected cells, removing the growth factor IL-3, and thereby eventually obtaining cell lines that depend on the transferred protein KIT or various mutants of KIT. The GIST-T1-T670I (expressing C-KIT-T670I mutant gene) cell line was constructed by our laboratory as follows: designing sgRNA that targeted a region around T670 of the KIT gene with CRISPR Design Tool (website: crispr.mit.edu, Zhang Feng Lab), cloning it into pSpCas9(BB)-2A-Puro vector; co-transfecting cells with the resultant vector and a single-stranded oligonucleotide having T670I site mutation that is near to T670, subjecting the resultant to antibiotics screening, followed by dilution, and monocellular culture in a 96-well plate; validating the site T670 of the cells by sequence detection via Sanger sequencing.
The cells after incubation were detected using CCK-8 (purchased from MedChem Express, Shanghai, China) cell viability assay kit (CCK-8 may be reduced by dehydrogenase in living cells to a highly water-soluble yellow formazan product, and the amount of the resultant formazan is proportional to the number of living cells), the number of living cells were quantified with a microplate reader, and GI50 of the compounds and the control compounds were calculated (the results shown in Table 2 and Table 3).

[2] = tested on: TEL-cKIT/Y823D-BaF3 mouse tumor model; test: Tumor-grafted mouse model established with TEL-cKIT/Y823D-BaF3 cells; format: in vivo; details: oral, every day
Experimental: In this example Compound 1 and Compound 2 were respectively tested in TEL-cKIT/T670I-BaF3, TEL-cKIT/Y823D-BaF3, TEL-cKIT/D820G-BaF3 and GIST-T1-T670I mouse models.
Experimental protocols were as follows. • (1) Bal b/c female mice aged 4-6 weeks were purchased from Beijing Weitong Lihua Laboratory Animal Co., Ltd., and the mice were raised in an SPF laboratory. The drinking water and padding were sterilized by autoclaving. All operations on mice were conducted under aseptic conditions. • (2) About 5×10^6 TEL-cKIT/T670I-BaF3, TEL-cKIT/Y823D-BaF3, TEL-cKIT/D820G-BaF3 or GIST-T1-T670I cells were respectively injected subcutaneously onto the left back of all mice on Day 0. • (3) From Day 6, for the TEL-cKIT/T670I-BaF3 mouse model the corresponding mice were administrated orally every day with methylcellulose (HKI) as the vehicle (5 mice); with Compound 1 and Compound 2 at a dosage of 10 mg/kg, 20 mg/kg, 40 mg/kg, 100 mg/kg mouse weight (5 mice in each group); and with Sunitnib (purchased from MedChemExpress, China) at a dosage of 40 mg/kg mouse weight (5 mice). From day 6, for the TEL-cKIT/Y823D-BaF3 and TEL-cKIT/D820G-BaF3 mouse models the corresponding mice were administrated orally every day with methylcellulose (HKI) as the vehicle (5 mice); with Compound 1 and Compound 2 at a dosage of 40 mg/kg, 80 mg/kg mouse weight (5 mice in each group); and with Sunitnib (purchased from MedChemExpress, China) at a dosage of 40 mg/kg mouse weight (5 mice). From day 15, for the GIST-T1-T670I mouse model the corresponding mice were administrated orally every day with methylcellulose (HKI) as the vehicle (5 mice); with Compound 1 and Compound 2 at a dosage of 20 mg/kg, 40 mg/kg, 80 mg/kg mouse weight (5 mice in each group); and with Sunitnib at a dosage of 40 mg/kg mouse weight (5 mice). • (4) From day 6 (TEL-cKIT/T670I-BaF3, TEL-cKIT/Y823D-BaF3, TEL-cKIT/D820G-BaF3 mouse model) and From day 15 (GIST-T1-T670I mouse model), respectively, the length/width of the subcutaneous tumor were measured with a vernier caliper every day and the body weight of the mouse was recorded every day so as to determine the effects of Compound 1 and Compound 2 on the body weight and tumor size of the mice, respectively. • (5) The mice were sacrificed on Day 11 after administration for the TEL-cKIT/T670I-BaF3 mouse model, on Day 9 after administration for the TEL-cKIT/Y823D-BaF3 and TEL-cKIT/D820G-BaF3 mouse models, and on Day 28 after administration for the GIST-T1-T670I mouse model. The subcutaneous tumors were taken out, and the tumors were weighed and compared. • (6) The growth trend of subcutaneous tumors was calculated and the tumor size was calculated according to: length×width×width/2 mm^3.

COc1cc2nccc(Oc3ccc(NC(=O)Cc4ccc(C)c(C(F)(F)F)c4)cc3)c2cc1OC [Example 1, N-(4-((6,7-dimethoxyquinolin-4-yl)oxy)phenyl)-2-(4-methyl-3-(trifluoromethyl)phenyl)acetamide]
GI50 ([1]; 72 h): 17 nM | inhibitory effects against tumor in mice ([2]; 40 mg/kg): excellent inhibitory effects against tumor in mice | influence on mice weight [2]: without significant influence on mice weight

COc1cc2nccc(Oc3ccc(NC(=O)Cc4ccc(Cl)c(C(F)(F)F)c4)cc3)c2cc1OC [Example 2, N-(4-((6,7-dimethoxyquinolin-4-yl)oxy)phenyl)-2-(4-chloro-3-(trifluoromethyl)phenyl)-acetamide]
GI50 ([1]; KIT wild-type, 72 hours, CCK-8): 1 nM | inhibitory effects against tumor in mice ([2]; 40 mg/kg): excellent inhibitory effects against tumor in mice | tumor inhibition rate ([2]; 40 mg/kg): ≥ 80% | influence on mice weight [2]: without significant influence on mice weight
